Data set [1] is described as follows: Toxicity in KB tumor bearing mice. In kind it is in vivo. To be noted: 0.5 μmol/kg, once a week for two weeks. The procedure:
The percentage weight change of the test animals was determined on selected days post-tumor inoculation (PTI), and during dosing. The results were graphed.

Data set [2] concerns KB tumor. Nature of the data set: Antitumor activity in large KB tumor model. In kind it is in vivo, mice. To be noted: once a week for two weeks. The procedure: Female Balb/c nu/nu mice were fed ad libitum with folate-deficient chow (Harlan diet #TD01013) for the duration of the experiment. KB tumor cells were inoculated subcutaneously at the right flank of each mouse. Mice were dosed after the tumors reached an average of 100 and 180 mm^3 through the lateral tail vein under sterile conditions in a volume of […] of phosphate-buffered saline (PBS).
Growth of each s.c. tumor was followed by measuring the tumor two times per week. Tumors were measured in two perpendicular directions using Vernier calipers, and their volumes were calculated as 0.5×L×W^2, where L=measurement of longest axis in mm and W=measurement of axis perpendicular to L in mm.

The test system of data set [3] is MDA-MB231 cells. The experiment in a line: 3H-thymidine incorporation in MDA-MB231 cells. The data set is classed as cell-based, human. As to conditions: MDA-MB-231 cells, 100 μM folic acid. The procedure:
MDA-MB231 (human breast cancer) cells were seeded in 12-well Falcon plates and allowed to form nearly confluent monolayers overnight in FFRPMI/HIFCS. Designated wells received medium containing 100μM folic acid (nontoxic FR blocker) and were used to determine the targeting specificity. Each well then received increasing concentrations of Conjugate 1 (n=4). Cells were pulsed for 2 h at 37° C., rinsed with medium, and then chased in fresh medium up to 72 h. Spent medium was aspirated and replaced with medium containing [3H]thymidine. Following a 2 h incubation, cells were washed with PBS and then treated with 5% trichloroacetic acid. The trichloroacetic acid was aspirated and cells were solubilized in 0.25 N sodium hydroxide. Each solubilized sample were transferred to scintillation vials containing Ecolume scintillation cocktail and counted in a liquid scintillation counter. Final results were expressed as the percentage of [3H]thymidine incorporation relative to untreated controls and IC50 were values calculated using GraphPad Prism software.
Background: Incorporation of labelled thymidine or its analogues reports DNA synthesis.

Data set [4] has as its target T1, folate receptor (Homo sapiens, UniProt P15328).
T1 construct: endogenous in cells; host or cells: KB cells
The experiment in a line: Relative affinity assay (displacement of [3H]FA bound to FR on KB cells). In kind it is binding. As to conditions: 100 nmol/L [3H]FA, 1 h at 37° C. The procedure: FR-positive KB cells were seeded in 24-well Falcon plates and allowed to form adherent monolayers (>90% confluent) overnight in FFRPMI/HIFCS. Spent incubation medium was replaced with FFRPMI supplemented with 10% HIFCS and containing 100 nmol/L of [^3H]FA in the absence and presence of increasing concentrations of unlabeled FA or the test conjugate. Cells were incubated for 1 h at 37° C. and then rinsed thrice with 0.5 mL PBS. Five hundred microliters of 1% SDS in PBS were added to each well; after 5 min, cell lysates were collected, transferred to individual vials containing 5 mL of scintillation cocktail, and then counted for radioactivity.
Cells exposed to only the [3H]FA in FFRPMI (no competitor) were designated as negative controls, whereas cells exposed to the [3H]FA plus 1 mmol/L unlabeled FA served as positive controls. Disintegrations per minute (DPM) measured in the latter samples (representing nonspecific binding of label) were subtracted from the DPM values from all samples.
Background: Displacement assays read how much labelled ligand stays bound in the presence of the test substance.

Data set [5] deals with Calf thymus DNA (CT-DNA). Nature of the data set: DNA crosslinking assay (ethidium bromide fluorescence). In kind it is biochemical. Here is the method:
(§1) Calf thymus DNA (CT-DNA) was combined with increasing concentrations of Conjugate 1 (0.14 to 33.3 pM) or Conjugate 1+/− DTT. CT-DNA+Melphalan was used as a positive control and CT-DNA+DMSO was used as a negative control. These solutions were incubated at 37° C. for 2 hours. The solutions were then mixed with ethidium bromide and incubated for 2 hours at room temperature. Fluorescence (Ex: 535 nm, Em: 605 nm) from these samples was measured on the Fluoroskan II fluorimeter. Next, the samples were heated to 104° C. for 5 minutes, cooled on ice for 5 minutes, kept at RT for 15 minutes and fluorescence measured. % crosslinking of each sample was calculated using the fluorescence values from the positive and negative controls.
as §1, with “5 (1.1” for “1 (0.14”, “75” for “33.3”, “5+/−” for “1+/−”, “DTT.” for “DTT. CT-DNA+Melphalan was used as a positive control and CT-DNA+DMSO was used as a negative control.”

Data set [6] concerns KB cells. In kind it is cell-based, human. As to conditions: read-out: IC50 value, 3H-thymidine incorporation. The procedure:
The conjugates described herein were evaluated using an in vitro cytotoxicity assay that predicted the ability of the drug to inhibit the growth of the corresponding targeted cells, such as, but not limited to the following
It is to be understood that the choice of cell type can be made on the basis of the susceptibility of those selected cells to the drug that forms the conjugate, and the relative expression of the cell surface receptor or target antigen. The test conjugates were conjugates of a cell surface receptor or target antigen binding compound and PBD prodrugs, poly-PBD prodrugs, and mixed PBDs, as described herein. The test cells were exposed to varying concentrations of the conjugates, and optionally also in the absence or presence of at least a 100-fold excess of the unconjugated cell surface receptor or target antigen binding compound for competition studies to assess activity as being specific to the cell surface receptor or target antigen.
KB cells were seeded in individual 24-well Falcon plates and allowed to form nearly confluent monolayers overnight in folate free Roswell Park Memorial Institute (FFRPMI)/Heat-Inactivated Fetal Calf Serum (HIFCS). Thirty minutes prior to the addition of folate-conjugate, spent medium was aspirated from all wells and replaced with either fresh FFRPMI or FFRPMI supplemented with 100 μM folic acid. […] Cells were pulsed for 2 h at 37° C., rinsed 4 times with 0.5 mL of medium and then chased in 1 mL of fresh medium up to 72 h. Spent medium was aspirated from all wells and replaced with fresh medium containing 5 μCi/mL of ^3H-thymidine. Following a 2 h incubation at 37° C., cells were washed 3 times with 0.5 mL of PBS and then treated with 0.5 mL of ice-cold 5% trichloroacetic acid per well. After 15 min, the trichloroacetic acid was aspirated and the cells solubilized by the addition of 0.5 mL of 0.25 N sodium hydroxide for 15 min at room temperature. Four hundred and fifty […] of each solubilized sample were transferred to scintillation vials containing 3 mL of Ecolume scintillation cocktail and counted in a liquid scintillation counter. Final results were expressed as the percentage of ^3H-thymidine incorporation relative to untreated controls.

Data set [7] concerns Endometrial PDX tumor (ST040). The experiment in a line: In vivo activity against endometrial tumors, ST040. The arrangement: species or system mice. To be noted: 15 mg/kg SIW for two weeks. Here is the method: Female Balb/c nu/nu mice were fed ad libitum with folate-deficient chow (Harlan diet #TD01013) for the duration of the experiment. Primary human Endometrial model ST040 fragments (2-4 mm in diameter) were inoculated subcutaneously at the right flank of each mouse. Mice were randomized into experimental groups of 7 mice each and test articles were injected through the lateral tail vein under sterile conditions in a volume of 200 μL of phosphate-buffered saline (PBS). These studies were performed at South Texas Accelerated Research Therapeutics, 4383 Medical Drive, San Antonio, Tex. 78229.
Growth of each s.c. tumor was followed by measuring the tumor two times per week until a volume of 1200 mm^3 was reached. Tumors were measured in two perpendicular directions using Vernier calipers, and their volumes were calculated as 0.5×L×W^2, where L=measurement of longest axis in mm and W=measurement of axis perpendicular to L in mm.

Data set [8] concerns ST070 ovarian PDX tumors. The experiment in a line: In vivo activity against ovarian tumors, ST070. More on the design: species or system mice. As to conditions: 15.0 mg/kg SIW for two weeks. Here is the method:
(§2) Mice were maintained and tumor volumes were measures according to Method 3.
Primary human Ovarian model ST070 fragments (2-4 mm in diameter) were inoculated subcutaneously at the right flank of each mouse. Mice were randomized into experimental groups of 7 mice each and test articles were injected through the lateral tail vein under sterile conditions in a volume of 200 μL of phosphate-buffered saline (PBS).

Data set [9] relates to TNBC PDX tumor. The experiment in a line: In vivo activity against triple negative breast tumors (FIG. 38). The arrangement: species or system mice. To be noted: 1.0 μmol/kg SIW for two weeks. Here is the method: as §2
Primary human TNBC model ST502 (2-4 mm in diameter) or primary human TNBC model ST738 (2-4 mm in diameter) were inoculated subcutaneously at the right flank of each mouse. Mice were randomized into experimental groups of 7 mice each and test articles were injected through the lateral tail vein under sterile conditions in a volume of 200 μL of phosphate-buffered saline (PBS).

Where [10] appears, read: with excess folate (100 μM folic acid).
Where [11] appears, read: without excess folate, 2 h pulse, chase up to 72 h.

From US20200323991A1, “PBD CONJUGATES FOR TREATING DISEASES” (ENDOCYTE, INC., priority 2016, published 2020) come the findings set out here.

Like-named read-outs stand apart in the source and are kept apart here.

T1 sequence (P15328 25-234): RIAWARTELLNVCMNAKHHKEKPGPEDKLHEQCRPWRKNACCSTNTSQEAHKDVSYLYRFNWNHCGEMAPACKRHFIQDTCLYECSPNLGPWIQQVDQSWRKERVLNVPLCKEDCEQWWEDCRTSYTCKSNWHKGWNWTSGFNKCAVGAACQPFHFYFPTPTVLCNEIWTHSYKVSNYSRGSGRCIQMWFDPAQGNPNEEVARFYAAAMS

As for `C=C1C[C@H]2C=Nc3cc(OCCCCCOc4cc(N)c(C(=O)N5CC(=C)C[C@H]5C5CCCN5C(=O)OC[C@@H](SSC[C@H](NC(=O)[C@H](CC(=O)O)NC(=O)[C@H](CC(=O)O)NC(=O)[C@H](CCCNC(=N)N)NC(=O)[C@H](CC(=O)O)NC(=O)CC[C@H](NC(=O)c5ccc(NCc6cnc7nc(N)[nH]c(=O)c7n6)cc5)C(=O)O)C(=O)O)C(C)C)cc4OC)c(OC)cc3C(=O)N2C1` (stereo partly drawn) [Conjugate 12], the “day on which mice had to be euthanized due to toxicity” value in data set [1] was 40 days. Further, in data set [2] (0.5 μmol/kg), the “PRs (partial responses)” value is given as 100%.

On to `C=C1C[C@H]2C=Nc3cc(OCCCCCOc4cc5c(cc4OC)C(=O)N4CC(=C)C[C@H]4[C@H](O)N5C(=O)OCC(C)SSC[C@H](NC(=O)[C@H](CC(=O)O)NC(=O)[C@H](CC(=O)O)NC(=O)[C@H](CCCNC(=N)N)NC(=O)[C@H](CC(=O)O)NC(=O)CC[C@H](NC(=O)c4ccc(NCc5cnc6nc(N)[nH]c(=O)c6n5)cc4)C(=O)O)C(=O)O)c(OC)cc3C(=O)N2C1` (stereo partly drawn) [Conjugate 1], for which, in data set [3], the “cytotoxic activity in the presence of an excess of free folate” value is “significant reduction in activity”. The compound also registered a cures in [2] (0.5 μmol/kg) of 100%. Also, the “relative binding affinity toward the folate receptor, fold lower than that of folic acid” value in data set [4] is listed as roughly 4.2 fold. Also, in data set [5] (treated with DTT), the “DNA crosslinking by reduced form” value was “crosslink with DNA”. Also, the “DNA crosslinking by intact conjugate” value in data set [5] (without DTT) is “not able to crosslink DNA”.

Turning to `C=C1C[C@H]2C=Nc3cc(OCCCCCOc4cc5c(cc4OC)C(=O)N4CC(=C)C[C@H]4[C@H](O)N5C(=O)OCCSSC[C@H](NC(=O)[C@H](CC(=O)O)NC(=O)[C@H](CC(=O)O)NC(=O)[C@H](CCCNC(=N)N)NC(=O)[C@H](CC(=O)O)NC(=O)CC[C@H](NC(=O)c4ccc(NCc5cnc6nc(N)[nH]c(=O)c6n5)cc4)C(=O)O)C(=O)O)c(OC)cc3C(=O)N2C1` [Conjugate 3], the IC50 in data set [6] (setting [10]) turned out to be 3 nM; in data set [6] (setting [11]) it was 0.039 nM. The “day on which mice had to be euthanized due to toxicity” value in data set [1] came out at 48 days. This compound also gave a complete responses in data set [2] (0.5 μmol/kg) of 100%.

In turn, `CC(=O)O[C@H]1C(=O)[C@@]2(C)[C@H]([C@H](OC(=O)c3ccccc3)[C@]3(O)C[C@H](OC(=O)[C@H](O)[C@@H](NC(=O)c4ccccc4)c4ccccc4)C(C)=C1C3(C)C)[C@]1(OC(C)=O)CO[C@@H]1C[C@@H]2O` [paclitaxel] registered a partial response subjects in data set [7] of 0%. Moreover, in [8], the “tumor size compared to untreated control” value is on record as “did not have decreased tumor size”.

erubulin mesylate: the “TNBC PDX tumor size compared to untreated control” value in data set [9] is reported as “did not decrease TNBC PDX tumor size”.

In the case of `C=C1C[C@H]2C=Nc3cc(OCCCCCOc4cc5c(cc4OC)C(=O)N4CC(=C)C[C@H]4C(=O)N5COC(=O)CCCSSC[C@@H](NC(=O)[C@H](CCC(=O)NC[C@H](O)[C@@H](O)[C@H](O)[C@H](O)CO)NC(=O)[C@@H](CCC(=O)O)NC(=O)[C@H](CCC(=O)NC[C@H](O)[C@@H](O)[C@H](O)[C@H](O)CO)NC(=O)[C@@H](CCC(=O)O)NC(=O)[C@H](CCC(=O)NC[C@H](O)[C@@H](O)[C@H](O)[C@H](O)CO)NC(=O)CC[C@H](NC(=O)c4ccc(NCc5cnc6nc(N)[nH]c(=O)c6n5)cc4)C(=O)O)C(=O)O)c(OC)cc3C(=O)N2C1` [Conjugate 9], the IC50 in [6] (setting [10]) turned out to be 67 nM; in [6] (setting [11]), 0.8 nM. Moreover, in data set [2] (1 μmol/kg), the “PRs (partial responses)” value is recorded as 0%.

Take `C=C1C[C@H]2C=Nc3cc(OCCCCCOc4cc(NC(=O)OCCSSC[C@H](NC(=O)[C@H](CC(=O)O)NC(=O)[C@H](CC(=O)O)NC(=O)[C@H](CCCNC(=N)N)NC(=O)[C@H](CC(=O)O)NC(=O)CC[C@H](NC(=O)c5ccc(NCc6cnc7nc(N)[nH]c(=O)c7n6)cc5)C(=O)O)C(=O)O)c(C(=O)N5CC(=C)C[C@H]5/C=N/OC)cc4OC)c(OC)cc3C(=O)N2C1` [Conjugate 16]: in data set [6] (setting [10]), the IC50 was 5 nM. The IC50 in data set [6] (setting [11]) is 0.07 nM. In data set [2] (0.5 μmol/kg), the complete responses amounted to 40% and the cures amounted to 60%.
